Reference: patent publication US7892782B2 (priority 1998, dated 2011)

Legend:
M. tuberculosis [1] = assay: Incorporation of [3H]-uridine into RNA after addition of rifampicin; format: cell-based, Mycobacterium tuberculosis
Protocol: For incorporation of radioactive uridine, 10 ml of the culture for each time point was washed twice to remove the remaining rifampicin and then resuspended in 10 ml 7H9 medium followed by incubation with 10 μCi/ml of [^3H]-uridine for 20 hours. For 5* the culture was not washed after incubation with rifampicin and 10 μCi/ml of [^3H]-uridine was added to the culture which was further incubated in the presence of rifampicin for 20 hours. The RNA was extracted by methods known in the art. The RNA [^3H]-uridine incorporation was determined as counts per minute of trichloroacetic acid precipitated RNA. The results were confirmed in three independent experiments.

M. tuberculosis [2] = assay: RT-PCR of gene transcripts before and after rifampicin treatment; format: cell-based, Mycobacterium tuberculosis; details: 12 hours in growth medium alone
Protocol: The metabolic state of bacilli before and after rifampicin treatment was also assessed by examining total RNA which was extracted. RT-PCR was performed on the following genes; rpoB which encodes the rifampicin target (RNA polymerase sub-unit B); 16 kDa protein α-crystallin homolog); 16S rRNA and two Sigma 70 homologues, sigA and sigB.

M. tuberculosis H37Rv = format: cell-based, Mycobacterium tuberculosis
[3] = tested on: M. tuberculosis persister cells; details: data not shown
Escherichia coli K12 = format: cell-based; details: stationary phase ≅10^9 bacteria/ml, 50 μg/ml kanamycin, 3 days
Staphylococcus aureus = format: cell-based; details: stationary phase ≅10^9 bacteria/ml, 100 μg/ml ampicillin, 3 days

CO[C@H]1/C=C/O[C@@]2(C)Oc3c(C)c(O)c4c(O)c(c(/C=N/N5CCN(C)CC5)c(O)c4c3C2=O)NC(=O)/C(C)=C\C=C\[C@H](C)[C@H](O)[C@@H](C)[C@@H](O)[C@@H](C)[C@H](OC(C)=O)[C@@H]1C [rifampicin]
[3H]-uridine incorporation (M. tuberculosis [1]; 100 μg/ml rifampicin 1 day, washed, then 20 h with [3H]-uridine): 2228 ± 88 counts per minute | [3H]-uridine incorporation (M. tuberculosis [1]; 100 μg/ml rifampicin 2 days, washed, then 20 h with [3H]-uridine): 2316 ± 120 counts per minute | [3H]-uridine incorporation (M. tuberculosis [1]; 100 μg/ml rifampicin 3 days, washed, then 20 h with [3H]-uridine): 2430 ± 54 counts per minute | [3H]-uridine incorporation (M. tuberculosis [1]; 100 μg/ml rifampicin 4 days, washed, then 20 h with [3H]-uridine): 2318 ± 126 counts per minute | [3H]-uridine incorporation (M. tuberculosis [1]; 100 μg/ml rifampicin 5 days, washed, then 20 h with [3H]-uridine): 2388 ± 20 counts per minute | [3H]-uridine incorporation (M. tuberculosis [1]; 5*: 5 days, not washed, [3H]-uridine 20 h in the presence of rifampicin): 518 ± 10 counts per minute | increase of radioactive uridine incorporation after removal of rifampicin (M. tuberculosis [1]; medium alone versus in the presence of rifampicin (5 versus 5* days)): about 5 fold | increase of level of transcription (16K, sigA and rpoB transcripts) after removal of rifampicin (M. tuberculosis [2]): 5- to 10 fold | Broth counts (M. tuberculosis H37Rv): 10^2 bacteria/ml | Broth dilution counts of rifampicin treated cultures (M. tuberculosis H37Rv): 10^2 bacteria/ml

O=C(O)CN(CCN(CC(=O)O)CC(=O)O)CC(=O)O [EDTA]
effect on persister cell walls and efficacy of rifampicin [3]: permeabilizes persister cell walls and increases the efficacy of rifampicin

NC[C@H]1O[C@H](O[C@H]2[C@H](O)[C@@H](O[C@H]3O[C@H](CO)[C@@H](O)[C@H](N)[C@H]3O)[C@H](N)C[C@@H]2N)[C@H](O)[C@@H](O)[C@@H]1O [kanamycin]
phenotypically resistant subpopulation remaining (Escherichia coli K12): ~10^5 bacteria/ml

CC1(C)S[C@@H]2[C@H](NC(=O)[C@H](N)c3ccccc3)C(=O)N2[C@H]1C(=O)O [ampicillin]
phenotypically resistant subpopulation remaining (Staphylococcus aureus): ~10^5 bacteria/ml
